Data from patent US11046675B2, “Substituted isoquionline derivatives as immunomudulators” (Bristol-Myers Squibb Company, priority 2017, dated 2021).

Target: PD-1/PD-L1 (Homo sapiens (Human), UniProt Q9NZQ7)
Experiment: PD-1/PD-L1 Homogenous Time-Resolved Fluorescence (HTRF) binding assay
Conditions: PD-L1-His 10 nM, PD-1-Ig 20 nM; reported as range class; read-out: IC50 (μM) (Range or value)
Description: The ability of the compounds of formula (I) to bind to PD-L1 was investigated using a PD-1/PD-L1 Homogenous Time-Resolved Fluorescence (HTRF) binding assay.
Homogenous Time-Resolved Fluorescence (HTRF) Binding Assay
The interaction of PD-1 and PD-L1 can be assessed using soluble, purified preparations of the extracellular domains of the two proteins. The PD-1 and PD-L1 protein extracellular domains were expressed as fusion proteins with detection tags, for PD-1, the tag was the Fc portion of Immunoglobulin (PD-1-Ig) and for PD-L1 it was the 6 histidine motif (PD-L1-His). All binding studies were performed in an HTRF assay buffer consisting of dPBS supplemented with 0.1% […] bovine serum albumin and 0.05% (v/v) Tween-20. For the h/PD-L1-His binding assay, inhibitors were pre-incubated with PD-L1-His (10 nM final) for 15m in 4 μl of assay buffer, followed by addition of PD-1-Ig (20 nM final) in 1 μl of assay buffer and further incubation for 15 m. HTRF detection was achieved using europium crypate-labeled anti-Ig (1 nM final) and allophycocyanin (APC) labeled anti-His (20 nM final). Antibodies were diluted in HTRF detection buffer and 5 μl was dispensed on top of the binding reaction. The reaction mixture was allowed to equilibrate for 60 minutes and the resulting signal (665 nm/620 nm ratio) was obtained using an EnVision fluorometer. Additional binding assays were established between the human proteins PD-1-Ig/PD-L2-His (20 & 2 nM, respectively) and CD80-His/PD-L1-Ig (100 & 10 nM, respectively).
Recombinant Proteins: Human PD-1 (25-167) with a C-terminal human Fc domain of immunoglobulin G (Ig) epitope tag [hPD-1 (25-167)-3S-IG] and human PD-L1 (18-239) with a C-terminal His epitope tag [hPD-L1(18-239)-TVMV-His] were expressed in HEK293T cells and purified sequentially by ProteinA affinity chromatography and size exclusion chromatography. Human PD-L2-His and CD80-His was obtained through commercial sources.

Chain of PD-1/PD-L1 (Q9NZQ7 other isoform, or with tags, fused parts or gaps): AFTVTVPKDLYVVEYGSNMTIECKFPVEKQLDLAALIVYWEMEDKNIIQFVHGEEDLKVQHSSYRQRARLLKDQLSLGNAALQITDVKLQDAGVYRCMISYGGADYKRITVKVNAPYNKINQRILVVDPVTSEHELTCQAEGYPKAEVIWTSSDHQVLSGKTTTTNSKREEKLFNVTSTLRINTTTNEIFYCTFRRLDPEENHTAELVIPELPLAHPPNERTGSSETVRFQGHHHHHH

SMILES	IC50 [µM]
Cc1c(COc2ccc3c(c2)CN[C@@H](C(=O)O)C3)cccc1-c1ccc2c(c1)OCCO2 [Example 1004, (R)-7-((3-(2,3-dihydrobenzo[b][1,4]dioxin-6-yl)-2-methylbenzyl)oxy)-1,2,3,4-tetrahydroisoquinoline-3-carboxylic acid]	1.51 to 10
COC(=O)c1cncc(COc2cc(OCc3cccc(-c4cccc(OCCCN5CC[C@@H](O)C5)c4C)c3C)c(Cl)c3c2CN(CC(=O)O)CC3)c1 [Example 1007, (R)-2-(5-chloro-6-((3′-(3-(3-hydroxypyrrolidin-1-yl)propoxy)-2,2′-dimethyl-[1,1′-biphenyl]-3-yl)methoxy)-8-((5-(methoxycarbonyl)pyridin-3-yl)methoxy)-3,4-dihydro-isoquinolin-2(1H)-yl)acetic acid]	0.016 to 0.05

Further lines, results first:

IC50 [µM]	SMILES
0.051 to 1.5	Cc1c(COc2cc(O)c3c(c2)CCN(CC(=O)O)C3)cccc1-c1ccc2c(c1)OCCO2 [Example 1003, 2-(6-((3-(2,3-dihydrobenzo[b][1,4]dioxin-6-yl)-2-methylbenzyl)oxy)-8-hydroxy-3,4-dihydroisoquinolin-2(1H)-yl)acetic acid]
0.051 to 1.5	Cc1c(COc2cc(OCc3cncc(C#N)c3)cc3c2CN(CC(=O)O)CC3)cccc1-c1ccc2c(c1)OCCO2 [Example 1002, 2-(6-((5-cyanopyridin-3-yl)methoxy)-8-((3-(2,3-dihydrobenzo[b][1,4]-dioxin-6-yl)-2-methylbenzyl)oxy)-3,4-dihydroiso-quinolin-2(1H)-yl)acetic acid]
0.002 to 0.015	Cc1c(COc2cc3c(c(OCc4cncc(C#N)c4)c2)CN(CC(=O)O)CC3)cccc1-c1ccc2c(c1)OCCO2 [Example 1001, 2-(8-((5-cyanopyridin-3-yl)methoxy)-6-((3-(2,3-dihydrobenzo[b][1,4]dioxin-6-yl)-2-methylbenzyl)-oxy)-3,4-dihydroisoquinolin-2(1H)-yl)acetic acid]

Same assay, conditions: PD-L1-His 10 nM, PD-1-Ig 20 nM; reported as value; read-out: IC50 (μM) (Range or value)

IC50 [µM]	SMILES
> 10	Cc1c(COc2ccc3c(c2)CN[C@H](C(=O)O)C3)cccc1-c1ccc2c(c1)OCCO2 [Example 1005, (S)-7-((3-(2,3-dihydrobenzo[b][1,4]dioxin-6-yl)-2-methylbenzyl)oxy)-1,2,3,4-tetrahydroisoquinoline-3-carboxylic acid]
> 10	COC(=O)CN1CCc2c(Cl)c(OCc3cccc(-c4cccc(OCCCN5CC[C@@H](O)C5)c4C)c3C)cc(OCc3cncc(C(=O)OC)c3)c2C1 [Example 1008, methyl (R)-5-(((5-chloro-6-((3′-(3-(3-hydroxypyrrolidin-1-yl)propoxy)-2,2′-dimethyl-[1,1′-biphenyl]-3-yl)methoxy)-2-(2-methoxy-2-oxoethyl)-1,2,3,4-tetrahydroisoquinolin-8-yl)oxy)methyl)nicotinate]
0.002	Cc1c(COc2cc(OCc3cncc(C#N)c3)c3c(c2Cl)CCN(CC(=O)O)C3)cccc1-c1cccc(OCCCN2CC[C@@H](O)C2)c1C [Example 1006, (R)-2-(5-chloro-8-((5-cyanopyridin-3-yl)methoxy)-6-((3′-(3-(3-hydroxypyrrolidin-1-yl)propoxy)-2,2′-dimethyl-[1,1′-biphenyl]-3-yl)methoxy)-3,4-dihydroisoquinolin-2(1H)-yl)acetic acid]
